Data set [1] relates to RPMI 8226 multiple myeloma cells. Kind of data set: Chemoresistance assay, RPMI 8226 cells with Bortezomib. The note with it: for resensitization of chemoresistant RPMI 8226 multiple myeloma cells to Bortezomib (relative cell number): rising Bortezomib 0.5-1 nM or 0.75-1.3 nM, BVDU 30 μM, compounds 1 μM or lower, FIG. 1a. The class given is cell-based, human. The text has this: (§1) In a chemoresistance assay, a HSP27 dependent resistance to a cytostatic drug is induced in cultured cells by slowly increasing the dose of the cytostatic over several cell passages. This approach is valid for multiple cell types and cytostatic drugs and allowed us to test compounds according to the invention for their ability to inhibit HSP27 and reestablish susceptibility of the resistant cells to the cancer drug.
RPM-8226 cells, a human multiple myeloma cell line, were obtained from DSMZ (Leibniz Institute DSMZ-German Collection of Microorganisms and Cell Cultures). Cells were grown in RPMI 1640 medium (FG 1235; Biochrom AG, Berlin, Germany) supplemented with 10% (v/v) heat-inactivated fetal bovine serum in a humidified atmosphere containing 5% CO2 at 37° C. Logarithmically growing cells were seeded at a density of 100,000 cells/ml and incubated with Bortezomib (Velcade) in combination with or without test compounds. Cells were periodically counted using C-Chip Neubauer-improved counting chambers (Peqlab) and serially passaged. Cells were maintained below 1,000,000 cells/ml and typically passaged when the cell count reached 800,000 cells/ml. The starting dose of Bortezomib was typically 0.1 ng/ml and the concentration of Bortezomib was increased with each passage, e.g.: 1st passage, 0.1 ng/ml Bortezomib, 2nd passage 0.2 ng/ml Bortezomib, 3rd passage 0.3 ng/ml Bortezomib, etc.
Over 3-4 passages with increasing concentration of Bortezomib, cells begin to show resistance and finally grow at the same rate as untreated cells.
(§2) The addition of HSP27 inhibitors prevents development of chemoresistance and reestablishes the killing effect of Bortezomib. Cell numbers are determined at the end of the final passage to compare their growth rates.
(§3) As a reference compound, BVDU was tested at a concentration of 30 μM as previously described (Heinrich et al. (2016)). The compounds according to the invention were tested at a concentration of 1 μM or lower (see below). Test compounds were added at the start of the experiment and again after each passage and their concentrations remained unchanged throughout. […] The appropriate non-toxic dose of the test compound was determined in a dose-finding experiment beforehand.
FIG. 1a: Results of chemoresistance assay showing the resensitization of chemoresistant RPMI 8226 multiple myeloma cells to Bortezomib after treatment with test compounds. RPMI-8226 cells (100,000) were seeded and cultured in the presence of rising concentrations of Bortezomib (0.5-1 nM or 0.75-1.3 nM) and HSP27 inhibitor, and passaged every 4-7 days. Cell counts were taken after the last passage at the highest concentration of Bortezomib and relative cell number determined. Test compounds were BVDU, and Compound 12 and Compound 4, according to the invention.

The subject of data set [2] is 2950-K9 mouse colon carcinoma cells. The experiment in a line: Chemoresistance assay, 2950-K9 cells with 5-Fluorouracil. To be noted: rising 5-FU 12-20 nM; BVDU 30 μM, compounds 1 μM or lower; FIG. 1b. In kind it is cell-based.
Excerpt: as §1, §2, §3
FIG. 1b: Results of chemoresistance assay showing the resensitization of chemoresistant 2950-K9 mouse colon carcinoma cells to the drug 5-Fluorouracil (5-FU) after treatment with test compounds. 2950-K9 cells (100,000) were seeded and cultured in the presence of rising concentrations of 5-FU (12-20 nM) and HSP27 inhibitor, and passaged every 4-7 days. Cell counts were taken after the last passage at the highest concentration of 5-FU and relative cell number determined. Test compounds were BVDU, and Compound 5, Compound 12 and Compound 4, according to the invention.

In a further data set the target is HSP27 (Homo sapiens, UniProt P04792). Kind of data set: Aggregation assay: HSP27 chaperone activity on heat-induced aggregation of citrate synthase. The class given is biochemical. To be noted: compound 10 μM; 1.44 μM CS, 481 nM HSP27, 43° C., 500 nm. The method, then:
To test how small molecules affect the chaperone activity of HSP27, misfolding and aggregation of citrate synthase (CS), a well-known in vitro client protein of HSP27, was measured. Citrate synthase misfolds and aggregates when exposed to heat shock at 43° C. This heat denaturation is prevented or delayed in the presence of HSP27 (CS+HSP27) (Jakob et al. (1993)). […] The samples were incubated at 43° C. and the aggregation behavior of CS was monitored in a spectrometer (PerkinElmer LS55) at a wavelength of 500 nm. Substances inhibiting HSP27's chaperone activity lead to continued denaturation of the client protein and its aggregation in solution. This inhibition correlates with the strength of the interaction between HSP27 and the test substance, which is related to its binding efficiency.
In the reference experiment BVDU (CS+HSP27+BVDU) was tested at a concentration of 750 μM as previously described (Heinrich et al. (2016)).
The compounds according to the invention were tested at a concentration of 10 μM.

HSP27, sequence (P04792 whole entry): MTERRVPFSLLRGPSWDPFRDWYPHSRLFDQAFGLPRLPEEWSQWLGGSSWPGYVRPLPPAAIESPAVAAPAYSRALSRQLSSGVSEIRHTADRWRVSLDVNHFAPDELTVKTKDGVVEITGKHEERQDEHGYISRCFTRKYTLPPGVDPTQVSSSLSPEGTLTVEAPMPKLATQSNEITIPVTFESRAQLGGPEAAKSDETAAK

On to `O=c1[nH]c(=O)n([C@H]2C[C@H](O)[C@@H](CO)O2)cc1/C=C/Br` [BVDU, (E)-5-(2-bromovinyl)-2′-deoxyuridine, reference compound], for which, in data set [1] (cells treated with only BVDU (30 μM) or test compound (1 μM or lower)), the “influence on cell growth of compound alone (control without cytostatic)” value is given as “did not influence cell growth”. In addition, the “resensitization of chemoresistant RPMI 8226 multiple myeloma cells to Bortezomib (relative cell number)” value in data set [1] is recorded as “resensitization”. Besides, in data set [2], the “resensitization of chemoresistant 2950-K9 mouse colon carcinoma cells to 5-Fluorouracil (relative cell number)” value is on record as “resensitization”.

Turning to `O=C(Cc1cccc(-c2ccc(Cl)c(Cl)c2)c1)Nc1ccc(-n2ccc(=O)[nH]c2=O)cc1` [Compound 4, 2-(3′,4′-dichloro-[1,1′-biphenyl]-3-yl)-N-(4-(2,4-dioxo-3,4-dihydro-pyrimidin-1(2H)-yl)phenyl) acetamide], on HSP27, the “aggregation value related to the value from reference experiment (CS + HSP27 + BVDU), which was set at 1.0” value (“aggregation value related to the value” for short) was found to be 1.39. The “resensitization of chemoresistant RPMI 8226 multiple myeloma cells to Bortezomib (relative cell number)” value in data set [1] was “resensitization”. In data set [2], the “resensitization of chemoresistant 2950-K9 mouse colon carcinoma cells to 5-Fluorouracil (relative cell number)” value is reported as “resensitization”.

Take `O=C(Cc1cccc(-c2ccc(Cl)cc2Cl)c1)Nc1ccc(-n2ccc(=O)[nH]c2=O)cc1` [Compound 5, 2-(2′,4′-dichloro-[1,1′-biphenyl]-3-yl)-N-(4-(2,4-dioxo-3,4-dihydro-pyrimidin-1(2H)-yl)phenyl) acetamide]: on HSP27, the “aggregation value related to the value” value turned out to be 1.39. The “resensitization of chemoresistant 2950-K9 mouse colon carcinoma cells to 5-Fluorouracil (relative cell number)” value in data set [2] is “resensitization”.

On to `O=C(Cc1cccc(-c2ccc(Cl)c(Cl)c2)c1)Nc1ccc(-n2cc(F)c(=O)[nH]c2=O)cc1` [Compound 12, 2-(3′,4′-dichloro-[1,1′-biphenyl]-3-yl)-N-(4-(5-fluoro-2,4-dioxo-3,4-dihydro-pyrimidin-1(2H)-yl)phenyl) acetamide], for which the “aggregation value related to the value” value on HSP27 is given as 1.57. Moreover, the “resensitization of chemoresistant RPMI 8226 multiple myeloma cells to Bortezomib (relative cell number)” value in data set [1] is given as “resensitization”. Further, in data set [2], the “resensitization of chemoresistant 2950-K9 mouse colon carcinoma cells to 5-Fluorouracil (relative cell number)” value is listed as “resensitization”.

On to `O=c1ccn(-c2ccc(-n3cc(-c4ccc(Cl)c(Cl)c4)nn3)cc2)c(=O)[nH]1` [Compound 56, 1-(4-(4-(3,4-Dichlorophenyl)-1H-1,2,3-triazol-1-yl)phenyl)pyrimidine-2,4(1H,3H)-dione], for which the “aggregation value related to the value” value at HSP27 is 1.39.

The values above are taken from patent US11214564B2, “Compounds with thymine skeleton for use in medicine” (TECHNISCHE UNIVERSITÄT DRESDEN, priority 2019, dated 2022).
